Measured values published in US10966998B2, “Cancer therapy via a combination of epigenetic modulation and immune modulation” (The Johns Hopkins University, priority 2013, dated 2021).
“Also recorded” adds a separate entry of the source.

Tests used:
NSCLC cell lines = experiment: Genome-wide expression (Agilent arrays, GSEA) and DNA methylation of cell lines treated with AZA; assay type: cell-based, human
Text: For in vitro DNA methylation values, DNA was extracted from cell lines that were either untreated or treated with AZA at day 3, at the end of treatment, and day 10 (7 days post end of treatment) and analyzed by the Illumina Infinium HumanMethylation450 BeadChips (Illumina, Inc., San Diego, Calif., USA). Raw data were imported into R using the “methylumi” package from Bioconductor (22). Data points for probes with detection p-value >0.05 were masked as NA. Δ beta values (Δ beta value=beta value AZA−beta value Mock) were calculated and used to make boxplots. Heat maps were made similarly like those for the TCGA data using informative probes defined by the TCGA data.
For in vitro RNA extracted from cell lines treated with AZA, analyses were done at exactly the same time points as for DNA methylation above. Analyses from wild type colon cancer, HCT116 cells, and genetic knockout counterparts for DNA methyltransferases (DKO cells) were also performed. Expression microarrays were carried out using Agilent Human 4×44K expression arrays (Agilent Technologies, Santa Clara, Calif., USA, Cat#: G4112F). Within-array and between-array normalization was performed using Loess and Aquantile normalization, respectively (23). Median of the M values (M value Expression=log 2 [AZA/Mock] OR log 2 [DKO/HCT116]) was determined for multiple probes associated with the same gene.
For each of the eight lung cancer cell lines (H838, H1299, H358, H1270, A549, H460, HCC4006, HCC827) a ranked gene list was created (genes were sorted by decreasing M value). These eight ranked gene lists were entered in the GSEA tool (51-52) and the enrichment of both Kegg (53) and Reactome (54) pathways in these lists was calculated (default parameters). A gene set was selected when it was enriched in any of the eight cell lines (p value <0.05 and false discovery rate <0.25). The normalized enrichment scores (NES) for the gene sets in each cell line were used to create the heat maps. When a certain gene set was not significant in a cell line, it was assigned a NES of 0.
Expression and methylation data were analyzed to find genes whose re-expression was linked to demethylation after AZA treatment. Genes were selected based on a set of cut-offs, both for the methylation and expression values: A gene was considered to be re-expressed when at day 3 or day 10 the median M value of all the probes linked to that gene was higher than 0.5. Infinium probes were analyzed separately at their distances from the transcription start site for each gene examined. […] Only probes that were associated with a CpG island and that were located within 1000 bp upstream and 1000 bp downstream of the transcription start site were used in the analyses. The probes that passed these filters were validated using the TCGA methylation and expression data (see the definition of informative probes in the “Infinium DNA Methylation Data” section of Methods). […] To better understand the biological implications of the re-expressed genes, the gene lists were searched for transcription factors. Two human transcription factor lists obtained from Ravasi et al. (25) and Vaquerizas et al. (26, 27) were combined and the resulting list was matched to the lists of demethylated and re-expressed genes.
(§1) A previously validated pre-clinical model was employed to examine how AZA alters expression of key pathways in NSCLC cell lines.(29) Cells were treated in vitro with 500 nM AZA for 72 hours then harvested immediately after withdrawal of drug and again one week later for genome wide methylation and expression studies.

[1] = test system: cell surface PD-L1 in NSCLC lines H838 and H1299; experiment: Flow cytometry (FACS) of cell surface proteins after AZA treatment; assay type: cell-based, human; settings: day 10
Method: Frozen cells were thawed in 37 degrees Celsius and washed once with flow-washing buffer. Aliquots of single-cell suspension were then stained with fluorescent-labeled antibodies for 15 mins at room temperature. Each sample was washed twice and re-suspended in flow-washing buffer and analyzed by FACSCalibur. The following antibodies were used: CD274 (12-5983-42 Ebiosciences), HLA abc(12-9983-42 Ebiosciences), CD276(331606 Biolegend), CD119(558934 BD), B2 microblogumin(551337BD), CD58(555921BD). Changes between AZA treated and mock cells were calculated using mean fluorescence intensities (MFI) and the formula log 2([(MFIantibody, treated)−(MFIisotype, treated)]/[(MFIantibody, mock)−(MFIisotype, mock)]).
as §1

[2] = test system: epithelial cell lines and AML cell lines; experiment: Gene expression in tumor-derived cell lines with AZA treatment (FIG. 2); assay type: cell-based

Nc1ncn([C@@H]2O[C@H](CO)[C@@H](O)[C@H]2O)c(=O)n1 [AZA, 5-azacytidine]
immune-related pathways by Gene Set Enrichment Analysis (NSCLC cell lines; 500 nM AZA for 72 hours, NSCLC cell lines): up-regulation of multiple immune-related pathways
IRAK3 expression (NSCLC cell lines; H838 cells): up-regulated
number of genes 4-fold or more up-regulated (NSCLC cell lines; H2170 cells, day 10): 114 genes
IRF7 expression increase (NSCLC cell lines; LUSC cell line H2170): 9 fold
CD80 and CD86 expression (NSCLC cell lines; NSCLC cell lines): not altered
number of genes with high baseline promoter CpG island methylation, demethylation of 25% or more and expression increased 1.4-fold or greater (NSCLC cell lines; NSCLC cell lines): Approximately 300 genes
IFI27 expression (NSCLC cell lines; NSCLC lines): up-regulated
MAVS (antiapoptotic gene) expression (NSCLC cell lines; NSCLC lines): down-regulation
interferon-γ receptor (IFNGR1) and STAT gene (incl. STAT1) expression (NSCLC cell lines; NSCLC lines): up-regulation
transcripts of HLA Class I antigens, B2M, CD58, TAP1, PMSB9 and PSMB8 (NSCLC cell lines; NSCLC lines): upregulates
γ-interferon expression (NSCLC cell lines; NSCLC lines): not induced
antiapoptotic genes BCL2 and BIRC5 (SURVIVIN) expression (NSCLC cell lines; especially cell line H838): decreases
autophagy gene expression (NSCLC cell lines; especially cell line H838): increases
PD-L1 transcript level (NSCLC cell lines; several NSCLC cell lines): up-regulated
cell surface PD-L1 protein level [1]: up-regulated; also recorded: increased
gene expression changes with AZA treatment [2]: pro-inflammatory changes
